Data reported in ChEMBL document CHEMBL2311347, “The discovery of fused oxadiazepines as gamma secretase modulators for treatment of Alzheimer's disease” (Bioorg Med Chem Lett, 2013).

Legend:
[1] = target: Gamma-secretase (Homo sapiens) (UniProt Q96BI3+Q9NZ42+Q8WW43+P49768+Q92542+P49810); assay: Inhibition of gamma secretase (unknown origin) assessed as ratio of Abeta to Abeta42 level; type: protein-complex assay
Gamma-secretase = assay: Inhibition of gamma secretase (unknown origin) assessed as reduction of Abeta42 production; type: protein-complex assay, Homo sapiens
hERG = hERG (Homo sapiens, UniProt Q12809); assay: Inhibition of human ERG at 10 uM
Rattus norvegicus [2] = assay: Antialzheimer's disease activity in rat assessed as reduction in Abeta42 level at 10 mg/kg, po measured after 3 hrs post dose; type: functional
Rattus norvegicus [3] = assay: Antialzheimer's disease activity in rat assessed as reduction in Abeta42 level at 30 mg/kg, po measured after 3 hrs post dose; type: functional
[4] = Ratio of drug level in brain to plasma in rat at 10 mg/kg, po measured after 6 hrs post dose; type: ADME, organism-based; set-up: dose 10 mg/kg, route oral; settings: read-out: BPR
Rattus norvegicus [5] = assay: Antialzheimer's disease activity in rat assessed as reduction in Abeta42 level at 3 mg/kg, po measured after 3 hrs post dose; type: functional
Cytochrome P450 2C9 = Cytochrome P450 2C9 (Homo sapiens, UniProt P11712); assay: Inhibition of CYP2C9 (unknown origin); type: ADME
[6] = target: T1, Nuclear receptor subfamily 1 group I member 2 (Homo sapiens, UniProt O75469); assay: Activation of PXR (unknown origin) assessed as induction of CYP1A1 expression up to 30 uM relative to untreated control; type: ADME
T1 sequence (O75469 whole entry): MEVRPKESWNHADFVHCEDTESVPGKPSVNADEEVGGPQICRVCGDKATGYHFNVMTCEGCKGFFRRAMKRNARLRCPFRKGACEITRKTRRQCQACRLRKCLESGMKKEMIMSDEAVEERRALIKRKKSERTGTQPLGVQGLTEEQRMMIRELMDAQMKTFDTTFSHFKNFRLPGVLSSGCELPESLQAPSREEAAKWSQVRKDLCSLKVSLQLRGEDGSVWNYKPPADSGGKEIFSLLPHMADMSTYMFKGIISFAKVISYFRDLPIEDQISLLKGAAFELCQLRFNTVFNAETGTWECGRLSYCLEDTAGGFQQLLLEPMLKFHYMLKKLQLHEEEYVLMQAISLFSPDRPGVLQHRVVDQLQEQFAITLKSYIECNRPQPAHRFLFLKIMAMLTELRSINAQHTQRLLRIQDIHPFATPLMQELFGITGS

Cytochrome P450 2D6 = Cytochrome P450 2D6 (Homo sapiens, UniProt P10635); assay: Inhibition of CYP2D6 (unknown origin); type: ADME
Rattus norvegicus [7] = assay: Antialzheimer's disease activity in po dosed rat assessed as reduction in Abeta42 level measured after 3 hrs post dose; type: functional, organism-based
[8] = Drug level in rat brain at 10 mg/kg, po measured after 6 hrs post dose; type: ADME, organism-based; set-up: dose 10 mg/kg, route oral; settings: read-out: Drug uptake
[9] = AUC in rat at 10 mg/kg, po measured after 6 hrs post dose; type: ADME, organism-based; set-up: time < 6 hr, dose 10 mg/kg, route oral; settings: plasma
[10] = target: T1, Nuclear receptor subfamily 1 group I member 2; assay: Activation of PXR (unknown origin) assessed as induction of CYP2B1/2 expression up to 30 uM relative to untreated control; type: ADME
[11] = target: T1, Nuclear receptor subfamily 1 group I member 2; assay: Activation of PXR (unknown origin) assessed as induction of CYP3A1 expression up to 30 uM relative to untreated control; type: ADME
Cytochrome P450 3A4 = Cytochrome P450 3A4 (Homo sapiens, UniProt P08684); assay: Inhibition of CYP3A4 (unknown origin); type: ADME
Sequence of Cytochrome P450 3A4 (P08684 whole entry): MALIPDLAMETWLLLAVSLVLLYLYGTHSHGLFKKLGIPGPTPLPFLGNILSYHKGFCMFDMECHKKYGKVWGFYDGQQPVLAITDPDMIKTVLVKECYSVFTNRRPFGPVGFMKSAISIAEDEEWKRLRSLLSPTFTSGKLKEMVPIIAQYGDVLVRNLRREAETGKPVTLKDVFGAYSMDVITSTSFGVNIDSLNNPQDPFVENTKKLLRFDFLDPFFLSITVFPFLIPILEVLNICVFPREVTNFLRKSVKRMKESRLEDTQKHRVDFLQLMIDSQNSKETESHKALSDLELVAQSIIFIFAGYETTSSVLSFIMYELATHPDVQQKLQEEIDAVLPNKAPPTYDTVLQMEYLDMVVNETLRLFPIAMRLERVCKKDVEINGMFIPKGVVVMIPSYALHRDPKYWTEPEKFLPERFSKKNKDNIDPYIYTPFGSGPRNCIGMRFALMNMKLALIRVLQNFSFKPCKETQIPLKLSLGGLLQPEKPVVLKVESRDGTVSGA

Sequence of hERG (Q12809 whole entry): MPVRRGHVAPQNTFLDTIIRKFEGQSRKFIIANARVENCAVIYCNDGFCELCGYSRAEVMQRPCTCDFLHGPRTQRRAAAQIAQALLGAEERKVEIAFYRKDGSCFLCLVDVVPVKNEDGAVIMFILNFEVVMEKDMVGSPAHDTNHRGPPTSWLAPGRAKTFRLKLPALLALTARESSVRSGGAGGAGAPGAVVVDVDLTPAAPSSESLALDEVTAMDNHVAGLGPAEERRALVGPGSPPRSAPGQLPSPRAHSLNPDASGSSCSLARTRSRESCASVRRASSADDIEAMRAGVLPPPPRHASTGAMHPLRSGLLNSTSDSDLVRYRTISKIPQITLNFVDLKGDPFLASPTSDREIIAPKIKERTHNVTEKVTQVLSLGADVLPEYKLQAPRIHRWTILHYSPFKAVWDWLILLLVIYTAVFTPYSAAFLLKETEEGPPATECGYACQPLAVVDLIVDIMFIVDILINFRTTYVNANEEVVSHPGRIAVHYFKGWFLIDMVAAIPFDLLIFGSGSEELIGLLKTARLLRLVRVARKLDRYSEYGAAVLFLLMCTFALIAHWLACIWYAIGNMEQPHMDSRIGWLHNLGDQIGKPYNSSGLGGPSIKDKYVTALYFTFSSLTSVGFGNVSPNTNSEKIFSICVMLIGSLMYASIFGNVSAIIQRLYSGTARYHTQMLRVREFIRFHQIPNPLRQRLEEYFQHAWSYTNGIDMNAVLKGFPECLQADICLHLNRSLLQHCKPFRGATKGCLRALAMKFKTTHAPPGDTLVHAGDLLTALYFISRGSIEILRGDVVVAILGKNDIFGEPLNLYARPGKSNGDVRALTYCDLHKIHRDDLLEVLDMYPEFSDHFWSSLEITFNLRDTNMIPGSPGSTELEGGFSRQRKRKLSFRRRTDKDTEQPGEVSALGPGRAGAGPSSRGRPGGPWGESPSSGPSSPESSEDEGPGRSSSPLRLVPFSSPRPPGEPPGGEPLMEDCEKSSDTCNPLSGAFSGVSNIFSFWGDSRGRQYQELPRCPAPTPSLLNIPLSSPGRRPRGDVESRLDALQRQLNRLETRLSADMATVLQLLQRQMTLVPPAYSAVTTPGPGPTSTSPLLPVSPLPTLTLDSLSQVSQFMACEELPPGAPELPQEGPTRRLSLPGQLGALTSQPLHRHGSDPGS
Sequence of Cytochrome P450 2D6 (P10635 whole entry): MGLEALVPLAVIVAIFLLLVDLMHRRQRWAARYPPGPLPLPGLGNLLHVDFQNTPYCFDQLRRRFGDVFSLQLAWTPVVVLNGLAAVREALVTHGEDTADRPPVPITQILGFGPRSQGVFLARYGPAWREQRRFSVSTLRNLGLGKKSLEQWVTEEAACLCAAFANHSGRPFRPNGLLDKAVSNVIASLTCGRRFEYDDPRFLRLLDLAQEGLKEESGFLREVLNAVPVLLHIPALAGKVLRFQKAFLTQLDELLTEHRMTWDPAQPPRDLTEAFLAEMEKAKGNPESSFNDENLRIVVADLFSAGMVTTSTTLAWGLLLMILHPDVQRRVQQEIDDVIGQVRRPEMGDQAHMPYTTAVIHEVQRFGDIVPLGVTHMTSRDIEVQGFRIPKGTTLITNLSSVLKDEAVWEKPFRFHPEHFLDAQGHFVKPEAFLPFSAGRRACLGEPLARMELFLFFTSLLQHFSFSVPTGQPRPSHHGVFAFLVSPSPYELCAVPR
Sequence of Cytochrome P450 2C9 (P11712 whole entry): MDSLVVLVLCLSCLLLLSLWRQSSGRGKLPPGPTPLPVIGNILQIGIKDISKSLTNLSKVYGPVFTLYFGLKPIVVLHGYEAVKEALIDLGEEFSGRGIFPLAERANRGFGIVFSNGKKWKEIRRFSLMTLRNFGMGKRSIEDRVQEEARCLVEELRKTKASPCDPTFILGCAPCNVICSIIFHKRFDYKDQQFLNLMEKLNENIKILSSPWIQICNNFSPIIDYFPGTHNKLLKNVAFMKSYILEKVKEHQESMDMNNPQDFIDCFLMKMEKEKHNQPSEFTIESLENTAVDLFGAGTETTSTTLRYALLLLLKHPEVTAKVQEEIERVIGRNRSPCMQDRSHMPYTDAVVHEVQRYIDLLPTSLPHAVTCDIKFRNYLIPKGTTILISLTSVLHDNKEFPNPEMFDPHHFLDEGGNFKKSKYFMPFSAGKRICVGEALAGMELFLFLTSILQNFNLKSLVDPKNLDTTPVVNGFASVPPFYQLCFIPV

Ratio [1] | IC50 (Gamma-secretase) [µM] | SMILES | inhibition at 10 µM (hERG) [%] | inhibition in vivo at 10 mg/kg (Rattus norvegicus [2]) [%] | other results
364 | 0.053 | COc1cc(/C=C2\CCCN3CCC(c4cc(F)c(F)c(F)c4)ON=C23)ccc1-n1cnc(C)c1 (configuration not stated) | 89 |  | 
32 | 0.088 | COc1cc(/C=C2\CCCCN3C2=NOC[C@@H]3c2cc(F)c(F)c(F)c2)ccc1-n1cnc(C)c1 |  |  | 
354 | 0.052 | COc1cc(/C=C2\CCCN3C2=NOCC[C@@H]3c2ccc(F)cc2F)ccc1-n1cnc(C)c1 |  | 23 | 
510 | 0.039 | COc1cc(/C=C2\CCCN3C2=NOCC[C@@H]3c2cc(F)c(F)c(F)c2)ccc1-n1cnc(C)c1 | 33 | 61 | inhibition in vivo at 30 mg/kg (Rattus norvegicus [3]): 78%; Kp at 6 h [4]: 3.2; inhibition in vivo at 3 mg/kg (Rattus norvegicus [5]): 43%; IC50 (Cytochrome P450 2C9): > 30 µM; Activity [6]: 2%; IC50 (Cytochrome P450 2D6): > 30 µM; inhibition (Rattus norvegicus [7]): Dose-dependent effect; concentration at 6 h [8]: 1800 ng/g; AUC at 6 h [9]: 15.8 µM·h; Activity [10]: 0%; Activity [11]: 0%; IC50 (Cytochrome P450 3A4): > 30 µM
489 | 0.041 | COc1cc(/C=C2\CCCN3CCC(c4ccccc4)ON=C23)ccc1-n1cnc(C)c1 (configuration not stated) | 93 |  | 
150 | 0.13 | COc1cc(/C=C2\CCCN3CC(c4ccc(F)cc4)CON=C23)ccc1-n1cnc(C)c1 (configuration not stated) | 90 |  | 
480 | 0.041 | COc1cc(/C=C2\CCCN3C2=NOC(C)CC3c2cc(F)c(F)c(F)c2)ccc1-n1cnc(C)c1 (mixture of isomers) |  |  | 
480 | 0.016 | COc1cc(/C=C2\CCCN3C2=NOCC[C@@H]3c2cc(F)cc(Cl)c2)ccc1-n1cnc(C)c1 | 53 | 59 | 
392 | 0.037 | COc1cc(/C=C2\CCCN3C2=NOCC[C@@H]3c2cc(F)cc(F)c2)ccc1-n1cnc(C)c1 | 49 | 39 | 
140 | 0.14 | COc1cc(/C=C2\CCCN3CC(c4ccccc4)CON=C23)ccc1-n1cnc(C)c1 (configuration not stated) |  |  | 
340 | 0.04 | COc1cc(/C=C2\CCCN3C2=NOCC[C@@H]3c2ccc(F)c(Cl)c2)ccc1-n1cnc(C)c1 | 39 | 38 | 
465 | 0.043 | COc1cc(/C=C2\CCCN3CCC(c4ccc(F)cc4)ON=C23)ccc1-n1cnc(C)c1 (configuration not stated) | 93 |  | 
371 | 0.041 | COc1cc(/C=C2\CCCN3CCC(c4cc(F)cc(F)c4)ON=C23)ccc1-n1cnc(C)c1 (configuration not stated) |  |  | 
35 | 0.58 | COc1cc(/C=C2\CCCCN3C2=NOC[C@@H]3c2ccc(F)cc2)ccc1-n1cnc(C)c1 |  |  | 
466 | 0.024 | COc1cc(/C=C2\CCCN3C2=NOCC[C@@H]3c2ccc(F)c(F)c2)ccc1-n1cnc(C)c1 | 56 | 48 | 
16 | 1.26 | CCCO[C@@H]1CON=C2/C(=C/c3ccc(-n4cnc(C)c4)c(OC)c3)CCCN2[C@H]1c1cc(F)cc(F)c1 | 42 |  | 
262 | 0.064 | COc1cc(/C=C2\CCCN3CCC(c4cc(F)cc(Cl)c4)ON=C23)ccc1-n1cnc(C)c1 (configuration not stated) | 61 |  | 
572 | 0.035 | COc1cc(/C=C2\CCCN3C2=NOCC[C@@H]3c2cccc(F)c2)ccc1-n1cnc(C)c1 | 86 |  | 
210 | 0.095 | COc1cc(/C=C2\CCCN3C2=NOCC[C@@H]3c2ccc(Cl)c(F)c2)ccc1-n1cnc(C)c1 |  | 57 | 
409 | 0.049 | COc1cc(/C=C2\CCCN3C2=NOCC[C@@H]3c2ccc(F)cc2)ccc1-n1cnc(C)c1 | 81 | 40 | 
607 |  | COc1cc(/C=C2\CCCN3C2=NOC[C@@H]3c2cc(F)c(F)c(F)c2)ccc1-n1cnc(C)c1 |  |  | 
83 | 0.24 | COc1cc(/C=C2\CCCN3C2=NOC[C@@H](O)[C@@H]3c2cc(F)cc(F)c2)ccc1-n1cnc(C)c1 | 55 |  | 
